Laboratory results taken from article PMC10782225 (The FASEB Journal, 2023).

Experiments:
human α7‐only‐nAChR = molecular target: T1, human α7‐only‐nAChR (Homo sapiens, UniProt P36544); test: cell-based; details: SEM
T1 construct: expressed in transfected cells; host or cells: Xenopus laevis oocytes, cRNA injection

human α7β2‐nAChR = molecular target: T2, human α7β2‐nAChR (Homo sapiens, UniProt P17787+P36544); test: cell-based; details: SEM
T2 construct: expressed in transfected cells; host or cells: Xenopus laevis oocytes, cRNA injection
T2 sequence (P36544 23-502 limits assumed): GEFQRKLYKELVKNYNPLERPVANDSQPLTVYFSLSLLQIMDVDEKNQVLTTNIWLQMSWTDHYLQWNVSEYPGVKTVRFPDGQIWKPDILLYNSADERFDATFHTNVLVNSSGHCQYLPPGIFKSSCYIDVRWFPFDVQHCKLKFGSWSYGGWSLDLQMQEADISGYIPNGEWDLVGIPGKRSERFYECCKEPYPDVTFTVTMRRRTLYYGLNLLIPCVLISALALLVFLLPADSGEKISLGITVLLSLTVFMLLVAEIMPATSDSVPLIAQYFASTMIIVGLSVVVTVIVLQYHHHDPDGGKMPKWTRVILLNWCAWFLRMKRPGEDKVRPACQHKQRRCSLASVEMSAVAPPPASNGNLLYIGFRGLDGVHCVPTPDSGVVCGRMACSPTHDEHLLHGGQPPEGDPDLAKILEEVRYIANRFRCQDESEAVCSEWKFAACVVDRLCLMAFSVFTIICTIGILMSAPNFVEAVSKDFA
T2 sequence (P17787 26-502 limits assumed): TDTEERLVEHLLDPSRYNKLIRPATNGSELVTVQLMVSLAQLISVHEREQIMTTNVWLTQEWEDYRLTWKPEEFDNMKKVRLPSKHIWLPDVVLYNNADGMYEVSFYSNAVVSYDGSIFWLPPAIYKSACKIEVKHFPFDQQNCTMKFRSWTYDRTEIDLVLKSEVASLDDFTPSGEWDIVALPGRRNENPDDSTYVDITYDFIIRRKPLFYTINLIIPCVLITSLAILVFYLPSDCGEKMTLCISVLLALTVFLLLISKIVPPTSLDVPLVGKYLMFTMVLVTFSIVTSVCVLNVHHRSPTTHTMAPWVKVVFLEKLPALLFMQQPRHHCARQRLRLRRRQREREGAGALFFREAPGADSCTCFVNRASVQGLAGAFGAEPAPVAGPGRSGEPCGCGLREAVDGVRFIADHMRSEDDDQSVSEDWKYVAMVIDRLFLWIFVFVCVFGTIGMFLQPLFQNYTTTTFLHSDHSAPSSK

T1 sequence (P36544 23-502 limits assumed): as the sequence (P36544 23-502 limits assumed) above

For `CC(C)C[C@@H]1NC(=O)[C@H](Cc2ccccc2)NC(=O)[C@@H]2CSSC[C@H](NC(=O)CN)C(=O)N[C@@H](CSSC[C@@H](C(N)=O)NC(=O)[C@H](Cc3ccc(O)cc3)NC(=O)[C@H](CC(=O)O)NC(=O)[C@@H]3CCCN3C(=O)[C@H](CC(N)=O)NC(=O)[C@H](CC(N)=O)NC1=O)C(=O)N[C@@H](CO)C(=O)N[C@@H](Cc1c[nH]cn1)C(=O)N1CCC[C@H]1C(=O)N1CCC[C@H]1C(=O)N2` [α‐CtxPnIC, α‐conotoxin PnIC], the Kd (human α7‐only‐nAChR) was 1.9 ± 0.4 nM, the koff (human α7‐only‐nAChR; read-out: k off α7‐only) was 0.000122 s⁻¹ and the kon (human α7‐only‐nAChR; read-out: k on α7‐only) was 68700 M⁻¹ s⁻¹. For the same compound, the Kd (human α7β2‐nAChR; K d α7β2) was 3.3 ± 0.6 nM, the koff (human α7β2‐nAChR; read-out: k off α7β2) was 0.000119 s⁻¹ and the kon (human α7β2‐nAChR; read-out: k on α7β2) was 37200 M⁻¹ s⁻¹.
